# Measured values published in patent US7598244B2, “[1,2,4]triazolo[1,5,a]pyrimidin-2-ylurea derivative and use thereof” (Nippon Kayaku Kabushiki Kaisha, priority 2003, dated 2009).
# Read-outs that look alike come from different tables or passages of the source.
# Legend:
# Assay type in all cases: cell-based
# [1] = test system: MHC class I molecules of human peripheral blood-derived dendritic cells; test: Effect on expression of MHC class I molecules from human peripheral blood-derived dendritic cells; settings: dendritic cells matured with TNF-α, 3 days; read-out: EC50 (reduction of 50% of the number of cells wherein MHC class I molecules were highly expressed)
# Excerpt: Effect on Expression of MHC Class I Molecules from Human Peripheral Blood-Derived Dendritic Cells
# Monocytes were isolated from human peripheral blood by the specific gravity centrifugation method. Thereafter, using mouse anti-human CD14 antibody-binding microbeads and a magnetic cell separation system (Miltenyi Biotec), CD14 positive cells were separated from the peripheral blood monocytes. The separated CD14 positive cells were suspended in an RPMI 1640 medium containing 10% FBS, and the suspension was then inoculated in a 6-well plate, resulting in a concentration of 1.0×10^6 cells/well. It was cultured at 37° C. for 20 minutes in an incubator containing 5% carbon dioxide. […] Thereafter, RPMI 1640 containing a 500 U/ml human recombinant […] (hereinafter referred to as GM-CSF; Anapure Bioscientific), 50 ng/ml human recombinant interleukin 4 (hereinafter referred to as IL-4; Pepro Tech), and 10% FBS, was added to the remaining suspension at a concentration of 2 ml/well. The obtained mixture was then cultured at 37° C. in an incubator containing 5% carbon dioxide. When adhesive CD14 positive cells are cultured in the presence of GM-CSF and IL-4, the CD14 positive cells were differentiated into non-adhesive immature dendritic cells. After the cells had been cultured for 7 days, non-adhesive cells were recovered to obtain immature dendritic cells. Using a 6-well plate, the immature dendritic cells (2.5×10^5 cells/well) were cultured in RPMI 1640 containing a 100 U/ml human recombinant tumor necrosis factor-α (hereinafter referred to as TNF-a; Pepro Tech), a test compound, and 10% FBS, at 37° C. for 3 days in an incubator containing 5% carbon dioxide. The dendritic cells became mature as a result of the presence of TNF-α, but in the present test, a test compound was allowed to simultaneously act on the cells. The mature dendritic cells were then stained with fluoroisothiocyanate-labeled mouse anti-human MHC class I monoclonal antibody (an antibody generated from the cell line W6/32 (ATCC No. CRL 1991)). The rate of the number of cells wherein MHC class I molecules were highly expressed to the total number of cells was measured by flow cytometry. The reduction rate of the number of cells wherein MHC class I molecules were highly expressed was calculated using the following formula (2), and the concentrations of test compounds necessary for reduction of 50% (EC50 values) were obtained.
# [formula] • Eexp: (The number of cells, wherein MHC class I molecules are highly expressed, in cultured cells containing test compound)/(the total number of cells) • Cexp: (The number of cells, wherein MHC class I molecules are highly expressed, in cultured cells containing no test compounds)/(the total number of cells)
# [2] = test system: human dendritic cells cultured with human allogenic T cells; test: Effect on the ability of human dendritic cells to induce the growth of allogenic T cells ([3H]-thymidine incorporation); settings: dendritic cells treated 3 days with test compound and TNF-α, then 5 days with allogenic T cells, read-out: IC50 (inhibition of DNA synthesis of lymphocytes)
# Method: Effect on the Ability of Human Dendritic Cells to Induce the Growth of Allogenic T Cells
# Immature dendritic cells were cultured with a test compound and TNF-α for 3 days by the same method as that described in Test Example 2. The obtained dendritic cells (2.5×10^3 cells/50 μl/well) were cultured together with human allogenic T cells (2.0×10^5 cells/150 μl/well) in a 96-well flat bottom plate at 37° C. for 5 days in an incubator containing 5% carbon dioxide. Thereafter, [^3H]-thymidine (Amersham Pharmacia Biotech) was added thereto at an amount of 1 μCi/10 μl/well, 16 hours before completion of the culture. After completion of the culture, cells were captured on a glass filter using a cell harvester (Skatron Instrument) and then dried. Thereafter, Scintillator ACS-II (Amersham Pharmacia Biotech) was added thereto, and the radioactivity of [^3H]-thymidine incorporated into the cells were then measured using a liquid scintillation counter. The inhibition rate of the DNA synthesis of lymphocytes was calculated using the following formula (3). Thereafter, the concentration of a test compound necessary for inhibition of 50% (IC50 value) was obtained.
# [formula] • Eexp: The amount of [^3H]-thymidine incorporated into cultured cells containing test compound • Cexp: The amount of [^3H]-thymidine incorporated into cultured cells containing no test compounds
# [3] = test system: MHC class I molecules of T1 cells (human lymphoma cell line 174×CEM.); test: Effect on expression of MHC class I from T1 cells (flow cytometry, MFI); settings: 3 days culture
# Summary of the method: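 EC20 is the compound level that lowers MHC class I MFI by 20% relative to compound-free cultures. Read-out was flow cytometry after FITC W6/32 staining.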
# mouse splenic cells = test: Inhibitory action on blastogenesis of mouse splenic cells ([3H]-thymidine incorporation); settings: 72 hours
# Method: Inhibitory Action on Blastogenesis of Mouse Splenic Cells
# The spleen was excised from each of BALB/c mice (Charles River Japan; female; 10-week-old), and it was allowed to pass through a mesh to obtain a single cell suspension. This single cell suspension was prepared to be 1.0×10^6 cells/ml. Thereafter, 200 μl of the suspension was fractionated into each well of a 96-well plate. Thereafter, as blastogenic stimulation, 5 μg/ml concanavalin A (Pharmacia) or 25 μg/ml Escherichia coli-derived lipopolysaccharide (DIFCO) was added to the well, and then, a solution containing a test compound with each different concentration was further added thereto at an amount of 20 μl/well. The obtained mixture was cultured at 37° C. for 72 hours in an incubator containing 5% carbon dioxide. Thereafter, a 1 μCi/10 μl/well [^3H]-thymidine solution was added thereto 64 hours after initiation of the culture. After completion of the culture (72 hours later), the cells were captured on a filter using a cell harvester, and they were then dried. Thereafter, scintillator was added thereto, and the radioactivity of [^3H]-thymidine incorporated into the cells was then measured using a liquid scintillation counter. The inhibition rate of the DNA synthesis was calculated using the aforementioned formula (3). Thereafter, the concentration of a test compound necessary for inhibition of 50% (IC50 value) was obtained.
# [4] = 5 μg/ml concanavalin A, read-out: Lymphocyte blastogenesis IC50 (μM), ConA stimulation
# [5] = 25 μg/ml Escherichia coli-derived lipopolysaccharide, read-out: Lymphocyte blastogenesis IC50 (μM), LPS stimulation
EC50 [1],Compound,EC20 (concentration necessary for suppressing 20% of the expression level of MHC class I molecules) [3],also measured
460 nM,"O=C(Nc1ccccc1)Nc1nc2nccc(-c3cccs3)n2n1 [Example 001, 1-phenyl-3-[(7-thiophen-2-yl)-[1,2,4]triazolo[1,5-a]pyrimidin-2-yl]urea]",1100 nM,IC50 ([2]; Homo sapiens): 1230 nM
,CC(=O)c1cccc(NC(=O)Nc2nc3nccc(-c4cccs4)n3n2)c1 [Example 005],,IC50 [2]: 650 nM
660 nM,O=C(Nc1nc2nccc(-c3cccs3)n2n1)NC1CCCCC1 [Example 007],180 nM,IC50 ([2]; Homo sapiens): 970 nM
130 nM,COc1ccc(-c2ccnc3nc(NC(=O)NC4CCCCC4)nn23)cc1 [Example 015],45 nM,IC50 ([2]; Homo sapiens): 380 nM
290 nM,COc1ccc(-c2ccnc3nc(NC(=O)NCc4ccccc4)nn23)cc1 [Example 018],52 nM,
160 nM,O=C(Nc1nc2nccc(-c3ccc(O)cc3)n2n1)NC1CCCCC1 [Example 024],240 nM,IC50 ([2]; Homo sapiens): 820 nM
220 nM,COc1ccc(-c2ccnc3nc(NC(=O)NC4CCCC4)nn23)cc1 [Example 027],67 nM,
480 nM,COc1ccc(-c2ccnc3nc(NC(=O)NC(C)C)nn23)cc1 [Example 030],400 nM,IC50 ([2]; Homo sapiens): 1250 nM
210 nM,COc1ccc(-c2ccnc3nc(NC(=O)N[C@@H](C)C(=O)OC(C)(C)C)nn23)cc1 [Example 049],230 nM,IC50 ([2]; Homo sapiens): 1630 nM
,COc1ccc(-c2ccnc3nc(NC(=O)N[C@H](C(=O)NCCN(C)C)C(C)C)nn23)cc1 [Example 057],,IC50 [2]: 2700 nM
530 nM,COc1ccc(-c2ccnc3nc(NC(=O)NC4CCN(Cc5ccccc5)CC4)nn23)cc1 [Example 059],230 nM,
2220 nM,COc1ccc(-c2ccnc3nc(NC(=O)NCCCN4CCOCC4)nn23)cc1 [Example 067],300 nM,
2850 nM,COc1ccc(-c2ccnc3nc(NC(=O)N[C@H](C(=O)N4CCN(C)CC4)C(C)C)nn23)cc1 [Example 069],410 nM,
670 nM,COc1ccc(-c2ccnc3nc(NC(=O)NC(C(=O)NCC4CCCO4)C(C)C)nn23)cc1 (stereo not shown) [Example 071],530 nM,
,COc1ccc(-c2ccnc3nc(NC(=O)NCCC(=O)NCC4CCCO4)nn23)cc1 (stereo not shown) [Example 158],390 nM,IC50 [2]: 690 nM
,COc1ccc(-c2ccnc3nc(NC(=O)N[C@@H](C)CCCC(C)C)nn23)cc1 [Example 160],14 nM,IC50 (mouse splenic cells; [4]): 0.07 µM; IC50 (mouse splenic cells; [5]): 0.04 µM; IC50 [2]: 156 nM

EC50 [1],Compound,EC20 (concentration necessary for suppressing 20% of the expression level of MHC class I molecules) [3],also measured
,CC(C)NC(=O)Nc1nc2nccc(-c3cccc(OCCC4OCCCO4)c3)n2n1 [Example 183],220 nM,IC50 (mouse splenic cells; [4]): 0.55 µM; IC50 (mouse splenic cells; [5]): 0.14 µM
,CC(C)NC(=O)Nc1nc2nccc(-c3cccc(OCC4CCCO4)c3)n2n1 (stereo not shown) [Example 184],210 nM,IC50 (mouse splenic cells; [4]): 0.63 µM; IC50 (mouse splenic cells; [5]): 0.29 µM
,COCCCC(C)NC(=O)Nc1nc2nccc(-c3ccc(OC)cc3)n2n1 (stereo not shown) [Example 314],80 nM,
,COCCCC(C)NC(=O)Nc1nc2nccc(-c3cccs3)n2n1 (stereo not shown) [Example 315],270 nM,
,CC(CCC(C)(C)O)NC(=O)Nc1nc2nccc(-c3cccs3)n2n1 (stereo not shown) [Example 318],40 nM,
,COc1cccc([C@H](C)NC(=O)Nc2nc3nccc(-c4ccc(OCC5CCOCC5)cc4)n3n2)c1 [Example 322],20 nM,
,COc1ccc(-c2ccnc3nc(NC(=O)NC(C)CCC4(C)OCCO4)nn23)cc1 (stereo not shown) [Example 323],30 nM,
,COc1ccc(-c2ccnc3nc(NC(=O)NC(C)COCC4CCOCC4)nn23)cc1 (stereo not shown) [Example 325],70 nM,
,COc1ccc(-c2ccnc3nc(NC(=O)NC(C)CCC(C)=O)nn23)cc1 (stereo not shown) [Example 326],210 nM,
,"CCOCCC(C)NC(=O)Nc1nc2nccc(-c3ccc4c(c3)OCO4)n2n1 (stereo not shown) [Example 327, 1-[7-(3,4-methylenedioxyphenyl)-[1,2,4]triazolo[1,5-a]pyrimidin-2-yl]-3-(3-ethoxy-1-methylpropyl)urea]",150 nM,
,CCOCC[C@H](C)NC(=O)Nc1nc2nccc(-c3ccc(OCC4CCOCC4)cc3)n2n1 [Example 328],70 nM,
,CCOCC[C@H](C)NC(=O)Nc1nc2nccc(-c3ccc(O)cc3)n2n1 [Example 329],60 nM,
,CC(CCC(C)(C)O)NC(=O)Nc1nc2nccc(-c3ccc4c(c3)OCO4)n2n1 (stereo not shown) [Example 330],210 nM,
,CC(COCC1CCOCC1)NC(=O)Nc1nc2nccc(-c3cccs3)n2n1 (stereo not shown) [Example 331],150 nM,
,COCC[C@H](C)NC(=O)Nc1nc2nccc(-c3cccs3)n2n1 [Example 332],760 nM,
,CC(COCC1CCOCC1)NC(=O)Nc1nc2nccc(-c3ccc4c(c3)OCO4)n2n1 (stereo not shown) [Example 335],260 nM,
